Measured values reported in patent publication US10975068B2, “6-aminopyridin-3-yl thiazoles as modulators of RORγT” (Janssen Pharmaceutica NV, priority 2016, dated 2021).
Read-outs that look alike come from different tables or passages of the source.

What was measured:
full-length human RORγt = full-length human RORγt (Homo sapiens (Human), UniProt P51449); assay: RORγt (full-length human) reporter assay, Conditions B or C; assay type: cell-based; settings: for inhibition at 3 µM: at 3 μM compound concentration; for IC50: read-out: RORγt (FL) Reporter Assay B or C, IC50; for RORγt (FL) Reporter Assay B or C, % inhibition (value marked *): marked *: footnote not given
full-length human RORγt, sequence (P51449 other isoform, or with tags, fused parts or gaps): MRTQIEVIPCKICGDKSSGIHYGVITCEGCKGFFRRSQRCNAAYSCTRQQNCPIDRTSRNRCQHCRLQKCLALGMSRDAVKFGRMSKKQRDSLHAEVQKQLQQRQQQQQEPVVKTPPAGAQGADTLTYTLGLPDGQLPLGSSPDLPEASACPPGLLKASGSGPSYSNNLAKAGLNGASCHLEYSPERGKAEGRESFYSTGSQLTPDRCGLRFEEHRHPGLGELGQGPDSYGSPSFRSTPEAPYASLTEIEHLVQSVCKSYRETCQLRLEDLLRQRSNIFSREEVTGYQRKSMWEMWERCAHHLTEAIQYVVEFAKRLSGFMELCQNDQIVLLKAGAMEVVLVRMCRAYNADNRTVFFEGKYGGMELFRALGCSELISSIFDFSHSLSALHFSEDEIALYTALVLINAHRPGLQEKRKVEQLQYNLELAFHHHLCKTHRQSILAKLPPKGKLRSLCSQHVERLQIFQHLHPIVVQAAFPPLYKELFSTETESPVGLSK
Description: RORγt (Full-Length Human) Reporter Assay:
Cells used in this assay were transiently co-transfected with three different plasmids, one expressing the GAL4-DNA binding domain (DBD)-RORγt fusion protein under control of a CMV promoter (NH2-Gal4-DBD:RORC-COOH in pCMV-BD, Stratagene #211342), and two reporter plasmids—the firefly luciferase reporter under control of a GAL4 promoter (pFR-Luc 2×GAL4) and Renilla luciferase reporter under control of CMV promoter (pRL-CMV, Promega # E2261). The full-length coding sequence was used for human RORγt, i.e., nucleotides 142-1635 of human RORγt, transcript variant 2, NCBI Accession: NM_001001523.1 (SEQ ID NO:1). HEK293T cells were plated at 35,000 per well in 96-well plate in medium of DMEM with 10% FBS. After 18-22 hours incubation, the transfection was carried out by using a PEI solution with 170.5 ng total DNA/well (50 ng pCMV-BD-ROR plus 20 ng of pFR-Luc reporter and 0.5 ng of pRL-CMV reporter plus 100 ng Carrier DNA (Clontech #630440) for each well). 4-6 hours after transfection, cells were treated with compounds for overnight in the medium with final concentration of FBS 1.3% and DMSO 0.1%. After overnight (16 to 20 hours) incubation, media were removed and cells were lysed with 50 μL Glo Lysis Buffer (Promega) for 10-15 minutes followed by 10 minute incubation with 50 μL Dual Glo reagent (Promega) at room temperature. Firefly luciferase luminescence was measured using a BMG Pherastar plate reader. To each well, 50 μL Stop and Glo reagent was added and incubated for 10 minutes at room temperature. Renilla luminescence was measured using a BMG Pherastar plate reader. To calculate the effect of compounds on RORγt activity, firefly values were normalized against values of DMSO only and values of reference compound at saturating concentration, then further normalized against Renilla signals. IC50s were generated by plotting final Renilla normalized data against compound concentration and percent inhibition was calculated against DMSO control.
Cells used in this assay were transiently co-transfected with three different plasmids, one expressing the GAL4-DNA binding domain (DBD)-RORγt fusion protein under control of a CMV promoter (NH2-Gal4-DBD:RORC-COOH in pCMV-BD, Stratagene #211342), and two reporter plasmids—the firefly luciferase reporter under control of a GAL4 promoter (pFR-Luc 2×GAL4) and Renilla luciferase reporter under control of CMV promoter (pRL-CMV, Promega # E2261). The full-length coding sequence was used for human RORγt, i.e., nucleotides 142-1635 of human RORγt, transcript variant 2, NCBI Accession: NM_001001523.1 (SEQ ID NO:1). HEK293T cells were plated at 8750 cells per well in 384-well plate in medium of DMEM with 10% FBS. After 18-22 hours incubation, the transfection was carried out by using a PEI solution with 42.6 ng total DNA/well (12.5 ng pCMV-BD-ROR plus 5 ng of pFR-Luc reporter and 0.125 ng of pRL-CMV reporter plus 25 ng Carrier DNA (Clontech #630440) for each well). 4-6 hours after transfection, cells were treated with compounds for overnight in the medium with final concentration of FBS 1.3% and DMSO 0.1%. After overnight (16 to 20 hours) incubation, media were removed and cells were lysed with 20 μL Glo Lysis Buffer (Promega) for 10-15 minutes followed by 10 minute incubation with 20 μL Dual Glo reagent (Promega) at room temperature. Firefly luciferase luminescence was measured using a BMG Pherastar plate reader. To each well, 20 μL Stop and Glo reagent was added and incubated for 10 minutes at room temperature. Renilla luminescence was measured using a BMG Pherastar plate reader. To calculate the effect of compounds on RORγt activity, firefly values were normalized against values of DMSO only and values of reference compound at saturating concentration, then further normalized against Renilla signals.

[1] = target: human RORγt ligand binding domain (RORγt LBD) (Homo sapiens (Human), UniProt P51449); assay: RORγt ThermoFluor® assay (thermal shift binding); settings: read-out: ThermoFluor® Assay, Kd
human RORγt ligand binding domain (RORγt LBD), sequence (P51449 other isoform, or with tags, fused parts or gaps): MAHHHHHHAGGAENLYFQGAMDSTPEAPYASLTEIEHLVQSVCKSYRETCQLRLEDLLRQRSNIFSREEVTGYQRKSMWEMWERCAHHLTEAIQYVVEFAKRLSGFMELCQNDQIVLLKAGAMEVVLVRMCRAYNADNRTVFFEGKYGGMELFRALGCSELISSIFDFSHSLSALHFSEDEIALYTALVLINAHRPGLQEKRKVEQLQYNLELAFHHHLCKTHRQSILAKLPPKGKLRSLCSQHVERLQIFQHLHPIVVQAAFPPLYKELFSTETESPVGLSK
Description: ThermoFluor® is a fluorescence based assay that estimates ligand binding affinities by measuring the effect of a ligand on protein thermal stability (Pantoliano, M. W., Petrella, E. C., Kwasnoski, J. D., Lobanov, V. S., Myslik, J., Graf, E., Carver, T., Asel, E., Springer, B. A., Lane, P., and Salemme, F. R. (2001) High-density miniaturized thermal shift assays as a general strategy for drug discovery. J Biomol Screen 6, 429-40, and Matulis, D., Kranz, J. K., Salemme, F. R., and Todd, M. J. (2005) Thermodynamic stability of carbonic anhydrase: measurements of binding affinity and stoichiometry using ThermoFluor. Biochemistry 44, 5258-66). This approach is applicable to a wide variety of systems, and rigorous in theoretical interpretation through quantitation of equilibrium binding constants (KD).
The shift in the melting point described as a ΔTm is proportional to the concentration and affinity of the ligand. The compound potency may be compared as a rank order of either ΔTm values at a single compound concentration or in terms of KD values, estimated from concentration response curves.
RORγt ThermoFluor® Assay Construct
For the RORγt construct used in the ThermoFluor® assay, numbering for the nucleotide sequences was based on the reference sequence for human RORγt, transcript variant 2, NCBI Accession: NM_001001523.1 (SEQ ID NO:1). Nucleotides 850-1635 (SEQ ID NO:2) coding for the wild type human RORγt ligand binding domain (RORγt LBD) were cloned into the pHIS1 vector, a modified pET E. coli expression vector (Accelagen, San Diego), containing an in-frame N-terminal His-tag and a TurboTEV protease cleavage site (ENLYFQG, SEQ ID NO:3) upstream of the cloned insert sequence. The amino acid sequence for the RORγt construct used in the Thermofluor® assay is shown as SEQ ID NO:4.
ThermoFluor® experiments were carried out using instruments owned by Janssen Research and Discovery, L.L.C. through its acquisition of 3-Dimensional Pharmaceuticals, Inc. 1,8-ANS (Invitrogen) was used as a fluorescent dye. Protein and compound solutions are dispensed into black 384-well polypropylene PCR microplates (Abgene) and overlayed with silicone oil (1 μL, Fluka, type DC 200) to prevent evaporation.
Bar-coded assay plates are robotically loaded onto a thermostatically controlled PCR-type thermal block and then heated at a typical ramp-rate of 1° C./min for all experiments. Fluorescence was measured by continuous illumination with UV light (Hamamatsu LC6) supplied via fiber optic and filtered through a band-pass filter (380-400 nm; >6 OD cutoff). Fluorescence emission of the entire 384-well plate was detected by measuring light intensity using a CCD camera (Sensys, Roper Scientific) filtered to detect 500±25 nm, resulting in simultaneous and independent readings of all 384 wells. Images were collected at each temperature, and the sum of the pixel intensity in a given area of the assay plate was recorded versus temperature. Reference wells contained RORγt without compounds, and the assay conditions were as follows: • 0.065 mg/mL RORγt • 60 μM 1,8-ANS • 100 mM Hepes, pH 7.0 • 10 mM NaCl • 2.5 mM GSH • 0.002% Tween-20
Project compounds were arranged in a pre-dosed mother plate (Greiner Bio-one) wherein compounds are serially diluted in 100% DMSO by 1:2 from a high concentration of 10 mM over 12 columns within a series (column 12 is a reference well containing DMSO, no compound). The compounds were robotically dispensed directly into assay plates (×=46 nL) using a Hummingbird capillary liquid handling instrument (Digilab). Following compound dispense, protein and dye in buffer was added to achieve the final assay volume of 3 μL, followed by 1 μL of silicone oil.

[2] = read-out: RORγt (FL) Reporter Assay B or C, % inhibition

inhibition at 3 µM (full-length human RORγt; [2]) [%] | IC50 (full-length human RORγt) [nM] | Kd [1] [nM] | inhibition at 0.33 µM (full-length human RORγt; at 0.33 μM compound concentration, read-out: RORγt (FL) Reporter Assay B or C, % inhibition) [%] | inhibition at 1 µM (full-length human RORγt; at 1 μM compound concentration, read-out: RORγt (FL) Reporter Assay B or C, % inhibition) [%] | SMILES | RORγt (FL) Reporter Assay B or C, % inhibition (value marked *) (full-length human RORγt; Conditions B or C) | IC50 (full-length human RORγt; Conditions B or C) [nM]
107 | 5.7 | 4 | – | – | CC(C)[C@@H](C)NC(=O)c1nc(C(=O)N2CCC[C@@H]2C)c(-c2cnc(NC(C)(C)C)cc2C(F)(F)F)s1 [Example 341, 5-[6-(tert-Butylamino)-4-(trifluoromethyl)-3-pyridyl]-N-[(1R)-1,2-dimethylpropyl]-4-[(2S)-2-methylpyrrolidine-1-carbonyl]thiazole-2-carboxamide] | – | –
– | – | 20 | – | – | C[C@H]1CCCN1C(=O)c1nc(C(=O)N2CC(C)(O)C2)sc1-c1cnc(NC(C)(C)C)cc1C(F)F [Example 149, [5-[6-(tert-Butylamino)-4-(difluoromethyl)-3-pyridyl]-2-(3-hydroxy-3-methyl-azetidine-1-carbonyl)thiazol-4-yl]-[(2S)-2-methylpyrrolidin-1-yl]methanone] | 108* % | 100
– | – | 2.5 | – | – | C[C@H](Nc1cc(C(F)F)c(-c2sc(C(=O)N[C@H](C)C(C)(C)O)nc2C(=O)N2CC(F)(F)C[C@@H]2C)cn1)C(F)(F)F [Example 198] | 102* % | 53
– | 5.3 | 3.2 | 53 | – | C[C@H](NC(=O)c1nc(C(=O)N2CCC[C@@H]2C)c(-c2cnc(NCC(C)(C)C)cc2C(F)F)s1)C(C)(C)O [Example 344, 5-[4-(Difluoromethyl)-6-(2,2-dimethylpropylamino)-3-pyridyl]-N-[(1S)-2-hydroxy-1,2-dimethyl-propyl]-4-[(2S)-2-methylpyrrolidine-1-carbonyl]thiazole-2-carboxamide] | – | –

More lines, now with the values behind:

SMILES | inhibition at 3 µM (full-length human RORγt; [2]) [%] | IC50 (full-length human RORγt) [nM] | Kd [1] [nM] | inhibition at 0.33 µM (full-length human RORγt; at 0.33 μM compound concentration, read-out: RORγt (FL) Reporter Assay B or C, % inhibition) [%] | inhibition at 1 µM (full-length human RORγt; at 1 μM compound concentration, read-out: RORγt (FL) Reporter Assay B or C, % inhibition) [%] | RORγt (FL) Reporter Assay B or C, % inhibition (value marked *) (full-length human RORγt; Conditions B or C) | IC50 (full-length human RORγt; Conditions B or C) [nM]
C[C@@H](NC(=O)c1nc(C(=O)N2C3CCC2CC3)c(-c2cnc(NC3(C)CCC3)cc2C(F)F)s1)C(C)(C)O [Example 329, 4-((1s,4s)-7-Azabicyclo[2.2.1]heptane-7-carbonyl)-5-(4-(difluoromethyl)-6-((1-methylcyclobutyl)amino)pyridin-3-yl)-N—((R)-3-hydroxy-3-methylbutan-2-yl)thiazole-2-carboxamide] | 89 | 38 | 1.7 | – | – | – | –
CC[C@H](Nc1cc(C(F)F)c(-c2sc(C(=O)N[C@@H]3CC[C@@H](O)C3)nc2C(=O)N2CCC[C@@H]2C)cn1)C(F)(F)F [Example 399, 5-[4-(Difluoromethyl)-6-[[(1S)-1-(trifluoromethyl)propyl]amino]-3-pyridyl]-N-[(1R,3R)-3-hydroxycyclopentyl]-4-[(2S)-2-methylpyrrolidine-1-carbonyl]thiazole-2-carboxamide] | 100 | 25 | 1.2 | – | – | – | –
C[C@H](Nc1cc(C(F)F)c(-c2sc(C(=O)N[C@H]3CCC[C@@H]3O)nc2C(=O)N2CC(F)(F)C[C@@H]2C)cn1)C(F)(F)F [Example 418, 4-[(2S)-4,4-Difluoro-2-methyl-pyrrolidine-1-carbonyl]-5-[4-(difluoromethyl)-6-[[(1S)-2,2,2-trifluoro-1-methyl-ethyl]amino]-3-pyridyl]-N-[(1S,2S)-2-hydroxycyclopentyl]thiazole-2-carboxamide] | 105 | 32 | 0.77 | – | – | – | –
CC[C@H](Nc1cc(C(F)F)c(-c2sc(C(=O)N[C@@H]3CCC[C@H]3O)nc2C(=O)N2C3CCC2CC3)cn1)C(F)(F)F [Example 225, 4-((1s,4s)-7-Azabicyclo[2.2.1]heptane-7-carbonyl)-5-(4-(difluoromethyl)-6-(((1S)-1-(trifluoromethyl)propyl)amino)-3-pyridyl)-N-((1R,2R)-2-hydroxycyclopentyl)thiazole-2-carboxamide] | – | – | 0.95 | – | – | 110* % | 6.8
C[C@H](Nc1cc(C(F)F)c(-c2sc(C(=O)NCC(C)(C)O)nc2C(=O)N2C3CCC2CC3)cn1)C(F)(F)F [Example 136] | – | – | 16 | – | – | 109* % | 790
C[C@H]1CCCN1C(=O)c1nc(C(=O)N[C@H]2COC[C@@H]2O)sc1-c1cnc(NC(C)(C)C)cc1C(F)F [Example 401, 5-[6-(tert-Butylamino)-4-(difluoromethyl)-3-pyridyl]-N-[(3S,4R)-4-hydroxytetrahydrofuran-3-yl]-4-[(2S)-2-methylpyrrolidine-1-carbonyl]thiazole-2-carboxamide] | – | 38 | 4.3 | – | 102 | – | –
